Experimental data: article PMC4924314, “Vertebrate TFPI-2 C-terminal peptides exert therapeutic applications against Gram-negative infections” (BMC Microbiology, 2016)

Legend:
[1] = system: E. coli ATCC 25922; experiment: Viable count analysis in mouse plasma; format: cell-based, Escherichia coli; details: E. coli ATCC 25922, viable count, mouse plasma (Figure S2)
Experimental: E. coli were grown to mid-exponential phase in Todd-Hewitt (TH). Bacteria were washed and diluted in 10 mM Tris, pH 7.4 either alone or with 20 % human or mouse (BALB/c) citrate-plasma. Bacterial (2 × 10^6 cfu/ml) were incubated in 50 μl, at 37 °C for 1 h with the C-terminal TFPI-2 derived peptides at the indicated concentrations. Serial dilutions of the incubation mixture were plated on TH agar, followed by incubation at 37 °C overnight and cfu determination. Additional file 1: Figure S1. Phylogenetic tree analysis of full-length and reminder protein except C-terminal TFPI-2 from vertebrates. Phylogenetic tree from 72 vertebrate TFPI-2 species was constructed using Neighbour-Joining tree with 1000 bootstrap replications on MEGA6. (PDF 54 kb) Additional file 2: Figure S2. Activities of TFPI-2 C-terminal derived peptides in mouse plasma. (Left) The bactericidal activity of mouse VKG24 peptide was assessed in physiological buffer conditions using viable count analysis. E. coli ATCC 25922 were grown to mid-logarithmic phase and incubated with varying concentrations of peptide. The antimicrobial activity was determined by plating serial dilutions of bacteria on TH agar plates and number of cfu was counted after overnight incubation. (Right) The activated partial thromboplastin time (aPTT) was determined by addition of buffer or 50 μM of VKG24 peptide to mouse plasma. […]

[2] = system: intrinsic pathway of coagulation; experiment: Activated partial thromboplastin time (aPTT) in mouse plasma; format: biochemical; details: peptide 50 μM, n = 3 (Figure S2)
Experimental: All clotting times were analyzed using a coagulometer (Amelung, Lemgo, Germany). For determination of activated partial thromboplastin time (aPTT), 100 μl of a kaolin-containing solution (Technoclone) was added to the 100 μl of fresh citrate plasma or citrate plasma peptide mix and incubated at 37 °C for 200 s before clot formation was initiated by adding 100 μl of 30 mM fresh CaCl2 solution. For detection of prothrombin time (PT, thromboplastin reagent (Trinity Biotech)) 100 μl of fresh citrate plasma were incubated 60 s at 37 °C before clot formation was initiated by adding 100 μl of clotting reagent. Additional file 1: Figure S1. Phylogenetic tree analysis of full-length and reminder protein except C-terminal TFPI-2 from vertebrates. Phylogenetic tree from 72 vertebrate TFPI-2 species was constructed using Neighbour-Joining tree with 1000 bootstrap replications on MEGA6. (PDF 54 kb) Additional file 2: Figure S2. […] (Left) The bactericidal activity of mouse VKG24 peptide was assessed in physiological buffer conditions using viable count analysis. […] The antimicrobial activity was determined by plating serial dilutions of bacteria on TH agar plates and number of cfu was counted after overnight incubation. (Right) The activated partial thromboplastin time (aPTT) was determined by addition of buffer or 50 μM of VKG24 peptide to mouse plasma. […]

[3] = system: E. coli LPS-induced septic shock in Balb/c mice; experiment: LPS-induced septic shock mouse model (survival, weight); format: in vivo; details: 10 mg/kg E. coli LPS i.p.
Experimental: (§1) Fig. 6 Treatment of LPS-induced septic shock mice with a mouse TFPI-2 derived peptide. Septic shock in Balb/c mice was induced by i.p. injection of 10 mg/kg E. coli LPS. […] Statistical comparisons of survival curves were performed using the Mantel-Cox’s test. ***P ≤ 0.0003. b Weight was determined daily. c Clotting times of aPTT and PT was measured in citrate plasma 24 h after LPS injection (n = 8). d The indicated cytokines were analyzed in plasma 24 h after LPS injection (n = 8). Statistical analysis for C-D, one-way ANOVA with Tukey’s multiple comparisons post-test was used. **P ≤ 0.003, ****P ≤ 0.0001
(§2) Male/female balb/c mice (8 weeks, 21 ± 5 g) were injected intraperitoneally (i.p.) with 10 mg E. coli 0111:B4 LPS (Sigma) per kg of body weight. Thirty minutes after LPS injection, 0.5 mg VKG24 (25 mg/kg) or PBS buffer alone (control) were injected i.p. into the mice. Status and weight were monitored daily for seven days. Mice where immobilization and/or shaking was observed were euthanized by an overdose of isoflurane (Abbott) and counted as non-survivors. For determination of cytokine levels in mouse plasma, animals were sacrificed 24 h after LPS injection. The blood was collected immediately by cardiac puncture into citrate tubes.

[4] = system: intrinsic and extrinsic coagulation pathways; experiment: Clotting times (aPTT, PT) in citrate plasma of LPS-injected mice; format: in vivo, mouse; details: peptide ~25 mg/kg i.p.
Experimental: Fig. 6 Treatment of LPS-induced septic shock mice with a mouse TFPI-2 derived peptide. […] Statistical analysis for C-D, one-way ANOVA with Tukey’s multiple comparisons post-test was used. **P ≤ 0.003, ****P ≤ 0.0001
as §2
All clotting times were analyzed using a coagulometer (Amelung, Lemgo, Germany). For determination of activated partial thromboplastin time (aPTT), 100 μl of a kaolin-containing solution (Technoclone) was added to the 100 μl of fresh citrate plasma or citrate plasma peptide mix and incubated at 37 °C for 200 s before clot formation was initiated by adding 100 μl of 30 mM fresh CaCl2 solution. For detection of prothrombin time (PT, thromboplastin reagent (Trinity Biotech)) 100 μl of fresh citrate plasma were incubated 60 s at 37 °C before clot formation was initiated by adding 100 μl of clotting reagent.

[5] = system: IL-6, MCP-1, IFN-γ, IL-10; experiment: Cytokine assay in plasma of LPS-injected mice; format: in vivo, mouse; details: 24 h after LPS injection, peptide ~25 mg/kg i.p., n = 8
Experimental: as §1, §2
Cytokines IL-6, IL-10, MCP-1, INF-γ and TNF-α were measured in plasma from mice infected by E. coli LPS (with or without peptide treatment) using the Cytometric bead array; mouse inflammation kit (Becton Dickinson AB) according to the manufacturer’s instructions. All plasma samples were stored at −80 °C before the analysis.

[6] = citrate plasma 24 h after LPS injection, n = 8

**Q.** With “VKGWKKPKRWKIGDFLPRFWKHLS [VKG24, mouse TFPI-2 C-terminal derived peptide (O35536)]” as the sequence, how does the “antimicrobial activity in mouse plasma” value [1] read?
**A.** potent

**Q.** And the “anti-coagulant activity in mouse plasma (aPTT)” value [2]?
**A.** potent

**Q.** And the survival rate ([3]; peptide 0.5 mg/mouse (~25 mg/kg) i.p. 30 min after LPS, monitored 7 days)?
**A.** dramatic improvement

**Q.** And the body weight ([3]; peptide ~25 mg/kg i.p. 30 min after LPS, weight determined daily)?
**A.** started regaining their weight from day three

**Q.** What about the “coagulation PT time” value [4, 6] of the same sequence?
**A.** significantly decreased

**Q.** And the “coagulation aPTT time” value [4, 6]?
**A.** significantly decreased

**Q.** And the “coagulation aPTT and PT levels in survivors” value ([4]; survivors)?
**A.** completely normalized

**Q.** And the IFN-γ in plasma [5]?
**A.** significant reduction

**Q.** What about the IL-6 in plasma [5] of the same sequence?
**A.** significant reduction

**Q.** And the IL-10 in plasma [5]?
**A.** significant reduction

**Q.** What about the MCP-1 in plasma [5] of the same sequence?
**A.** significant reduction
